# From patent US20250084056A1, “SUBSTITUTED OXOISOINDOLINYL PIPERIDINE-2,6-DIONE COMPOUNDS” (BRISTOL-MYERS SQUIBB COMPANY, priority 2023, published 2025)
# Experiments:
# Type in all cases: cell-based
# Cyclin E1 = Cyclin E1 (Homo sapiens, UniProt P24864+Q96SW2); experiment: Cyclin E1 Cellular Degradation Assay (MSD); parameters: endogenous in cells; host or cells: OVCAR3; details: for DC50 / Dmax: Cyclin E1 cellular degradation; for Dmax: maximum degradation; for Ratio of GSPT1 DC50/Cyclin E1 DC50: selectivity for degradation of Cyclin E1 over GSPT1
# Method in brief: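 OVCAR3 cells treated with compound for 24 h at 37 °C, lysed, and cyclin E1 measured by MSD sandwich immunoassay (rabbit capture, mouse detection anti-CCNE1). Reference degrader at […] defined 110% response; DC50 and Dmax derived from response.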
# GSPT1 = GSPT1 (Homo sapiens, UniProt P15170+Q96SW2); experiment: GSPT1 Cellular Degradation Assay (DF15-GSPT1-ePL); parameters: expressed in transfected cells; details: DF15-GSPT1-ePL cells, 20 hours
# Method in brief: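 Human DF15 cells co-expressing a GSPT1–ePL fusion were treated with compound in RPMI 1640/10% FBS for 20 h at 37 °C. GSPT1 level was read by enzyme-fragment-complementation luminescence after 60 min with detection reagent. The reference degrader at […] defined 75% response; DC50 and Dmax were reported.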
# Phospho-Rb (Ser807/811) = experiment: Phospho-Retinoblastoma (pRB) Cellular Assay; details: Homo sapiens, OVCAR-3, NIH OVCAR3 cells, 24 hours; for IC50: concentration giving 50% response; for Emax: maximum response, reference compound at 10 μM = 100%, read-out: pRB Ymax
# Method in brief: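 OVCAR3 cells seeded overnight, then dosed with serial dilutions for 24 h at 37° C. Lysed with kit mix plus phosphatase inhibitor, ≥4 h at room temperature, read on EnVision; 100% response set by reference compound at 10 μM, giving IC50 and Ymax.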
# Sequence of Cyclin E1 (P24864 whole entry): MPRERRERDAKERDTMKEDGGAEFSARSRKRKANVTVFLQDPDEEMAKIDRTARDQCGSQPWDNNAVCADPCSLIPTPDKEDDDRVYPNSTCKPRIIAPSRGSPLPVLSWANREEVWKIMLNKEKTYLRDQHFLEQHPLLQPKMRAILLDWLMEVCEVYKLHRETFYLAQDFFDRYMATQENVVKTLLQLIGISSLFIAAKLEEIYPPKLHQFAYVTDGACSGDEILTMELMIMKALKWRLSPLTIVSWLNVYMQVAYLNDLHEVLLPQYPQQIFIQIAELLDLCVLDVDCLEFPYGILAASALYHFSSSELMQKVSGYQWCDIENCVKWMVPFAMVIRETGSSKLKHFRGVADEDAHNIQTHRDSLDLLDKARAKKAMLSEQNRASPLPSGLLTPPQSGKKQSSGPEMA
# Sequence of Cyclin E1 (Q96SW2 whole entry): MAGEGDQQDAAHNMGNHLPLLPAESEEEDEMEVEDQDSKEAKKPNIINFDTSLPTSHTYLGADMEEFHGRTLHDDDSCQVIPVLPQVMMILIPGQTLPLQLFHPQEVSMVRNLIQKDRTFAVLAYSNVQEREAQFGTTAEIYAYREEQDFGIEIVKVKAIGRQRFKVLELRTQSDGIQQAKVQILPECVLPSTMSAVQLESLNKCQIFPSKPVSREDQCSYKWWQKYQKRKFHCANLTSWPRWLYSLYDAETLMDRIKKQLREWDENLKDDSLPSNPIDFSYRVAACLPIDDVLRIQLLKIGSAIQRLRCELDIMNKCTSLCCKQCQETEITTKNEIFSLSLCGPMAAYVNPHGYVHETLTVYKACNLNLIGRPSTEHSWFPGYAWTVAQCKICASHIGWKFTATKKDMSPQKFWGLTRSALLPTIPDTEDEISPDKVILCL
# Sequence of Cyclin E1 (Q16531 whole entry partner): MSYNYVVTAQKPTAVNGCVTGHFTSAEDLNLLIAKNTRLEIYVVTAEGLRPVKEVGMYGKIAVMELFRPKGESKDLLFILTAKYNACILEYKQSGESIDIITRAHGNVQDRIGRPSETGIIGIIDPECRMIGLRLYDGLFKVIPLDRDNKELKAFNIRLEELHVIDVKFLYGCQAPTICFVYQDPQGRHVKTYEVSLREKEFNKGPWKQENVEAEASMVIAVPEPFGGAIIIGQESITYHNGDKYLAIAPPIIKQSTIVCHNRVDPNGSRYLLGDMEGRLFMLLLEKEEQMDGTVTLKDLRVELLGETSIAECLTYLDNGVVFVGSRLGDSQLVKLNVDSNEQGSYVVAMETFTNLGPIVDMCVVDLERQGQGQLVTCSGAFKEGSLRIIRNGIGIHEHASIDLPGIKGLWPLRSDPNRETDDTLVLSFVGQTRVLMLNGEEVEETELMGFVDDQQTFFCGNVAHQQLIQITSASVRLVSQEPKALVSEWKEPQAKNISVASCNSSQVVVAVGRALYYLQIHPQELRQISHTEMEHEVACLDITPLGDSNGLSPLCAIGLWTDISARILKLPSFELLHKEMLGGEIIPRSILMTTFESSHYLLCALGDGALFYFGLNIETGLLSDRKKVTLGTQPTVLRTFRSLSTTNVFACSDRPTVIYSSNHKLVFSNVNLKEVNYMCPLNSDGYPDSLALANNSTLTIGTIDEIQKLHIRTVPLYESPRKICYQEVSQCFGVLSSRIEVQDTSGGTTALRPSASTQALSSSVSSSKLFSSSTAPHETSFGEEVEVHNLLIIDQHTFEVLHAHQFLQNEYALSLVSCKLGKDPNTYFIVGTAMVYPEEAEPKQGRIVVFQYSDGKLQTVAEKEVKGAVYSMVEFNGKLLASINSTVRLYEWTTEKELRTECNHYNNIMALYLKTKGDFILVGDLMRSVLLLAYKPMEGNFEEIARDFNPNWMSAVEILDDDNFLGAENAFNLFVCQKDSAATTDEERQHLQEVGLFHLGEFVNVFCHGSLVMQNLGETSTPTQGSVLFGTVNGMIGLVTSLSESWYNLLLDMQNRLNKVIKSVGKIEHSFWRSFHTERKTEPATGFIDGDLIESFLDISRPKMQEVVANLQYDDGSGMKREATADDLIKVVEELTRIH
# Sequence of GSPT1 (P15170 whole entry, the tested form may be a part): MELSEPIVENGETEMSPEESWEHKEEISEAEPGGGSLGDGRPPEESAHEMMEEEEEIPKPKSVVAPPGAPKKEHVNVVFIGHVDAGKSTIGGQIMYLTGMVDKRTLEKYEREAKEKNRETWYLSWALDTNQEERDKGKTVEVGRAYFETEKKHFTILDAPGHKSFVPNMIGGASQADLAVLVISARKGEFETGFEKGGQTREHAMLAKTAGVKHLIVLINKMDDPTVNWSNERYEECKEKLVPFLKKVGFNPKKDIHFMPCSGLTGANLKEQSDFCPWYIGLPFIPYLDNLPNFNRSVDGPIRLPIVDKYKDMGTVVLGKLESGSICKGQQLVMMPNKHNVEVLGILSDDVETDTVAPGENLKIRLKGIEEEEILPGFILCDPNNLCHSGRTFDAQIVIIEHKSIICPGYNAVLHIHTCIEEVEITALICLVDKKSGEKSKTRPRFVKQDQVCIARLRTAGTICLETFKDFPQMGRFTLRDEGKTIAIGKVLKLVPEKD
# Sequence of GSPT1 (Q96SW2 whole entry, the tested form may be a part): as the sequence (Q96SW2 whole entry) above
# Sequence of GSPT1 (Q16531 whole entry partner, the tested form may be a part): as the sequence (Q16531 whole entry partner) above
structure (smiles),measurement,setting,value
"O=C1CCC(N2Cc3ccc(COC(=O)Nc4ccc(Oc5ccccc5)cc4)c(OC(F)F)c3C2=O)C(=O)N1 (stereo not shown) [Example 60, [4-(difluoromethoxy)-2-(2,6-dioxopiperidin-3-yl)-3-oxo-2,3-dihydro-1H-isoindol-5-yl]methyl N-(4-phenoxyphenyl)carbamate]",DC50,Cyclin E1,184 nM
same,Dmax,Cyclin E1,104%
same,Ratio of GSPT1 DC50/Cyclin E1 DC50,Cyclin E1,>76
same,DC50,GSPT1,> 14000 nM
same,Dmax,GSPT1,19%
same,IC50,Phospho-Rb (Ser807/811),503 nM
same,Emax,Phospho-Rb (Ser807/811),109%
"COc1cc(Oc2ccc(F)cc2Cl)ccc1NC(=O)OCc1ccc2c(c1OC)C(=O)N(C1CCC(=O)NC1=O)C2 (stereo not shown) [Example 104, [2-(2,6-dioxopiperidin-3-yl)-4-methoxy-3-oxo-2,3-dihydro-1H-isoindol-5-yl]methyl N-[4-(2-chloro-4-fluorophenoxy)-2-methoxyphenyl]carbamate]",DC50,Cyclin E1,37 nM
same,Dmax,Cyclin E1,108%
same,Ratio of GSPT1 DC50/Cyclin E1 DC50,Cyclin E1,>380
same,DC50,GSPT1,> 14000 nM
same,Dmax,GSPT1,7%
same,IC50,Phospho-Rb (Ser807/811),50 nM
same,Emax,Phospho-Rb (Ser807/811),118%
"COc1cc(Oc2cc(F)c(F)c(F)c2)ccc1NC(=O)OCc1ccc2c(c1OC)C(=O)N(C1CCC(=O)NC1=O)C2 (stereo not shown) [Example 72, [2-(2,6-dioxopiperidin-3-yl)-4-methoxy-3-oxo-2,3-dihydro-1H-isoindol-5-yl]methyl N-[2-methoxy-4-(3,4,5-trifluorophenoxy)phenyl]carbamate]",DC50,Cyclin E1,394 nM
same,Dmax,Cyclin E1,103%
same,Ratio of GSPT1 DC50/Cyclin E1 DC50,Cyclin E1,>36
same,DC50,GSPT1,> 14000 nM
same,Dmax,GSPT1,5%
same,IC50,Phospho-Rb (Ser807/811),364 nM
same,Emax,Phospho-Rb (Ser807/811),120%
"COc1cc(Oc2ccc(F)cc2)ccc1NC(=O)OCc1ccc2c(c1OC)C(=O)N(C1CCC(=O)NC1=O)C2 (stereo not shown) [Example 37, [2-(2,6-dioxopiperidin-3-yl)-4-methoxy-3-oxo-2,3-dihydro-1H-isoindol-5-yl]methyl N-[4-(4-fluorophenoxy)-2-methoxyphenyl]carbamate]",DC50,Cyclin E1,107 nM
same,Dmax,Cyclin E1,102%
same,Ratio of GSPT1 DC50/Cyclin E1 DC50,Cyclin E1,>131
same,DC50,GSPT1,> 14000 nM
same,Dmax,GSPT1,28%
same,IC50,Phospho-Rb (Ser807/811),289 nM
same,Emax,Phospho-Rb (Ser807/811),111%
"O=C1CCC(N2Cc3ccc(COC(=O)Nc4ccc(Oc5cccc(F)c5F)cc4)c(Oc4ccccc4)c3C2=O)C(=O)N1 (stereo not shown) [Example 68, [2-(2,6-dioxopiperidin-3-yl)-3-oxo-4-phenoxy-2,3-dihydro-1H-isoindol-5-yl]methyl N-[4-(2,3-difluorophenoxy)phenyl]carbamate]",DC50,Cyclin E1,179 nM
same,Dmax,Cyclin E1,107%
same,Ratio of GSPT1 DC50/Cyclin E1 DC50,Cyclin E1,>78
same,DC50,GSPT1,> 14000 nM
same,Dmax,GSPT1,16%
same,IC50,Phospho-Rb (Ser807/811),83 nM
same,Emax,Phospho-Rb (Ser807/811),127%
"CC(C)(O)COc1c(COC(=O)Nc2ccc(Oc3cc(F)c(F)c(F)c3)cc2F)ccc2c1C(=O)N(C1CCC(=O)NC1=O)C2 (stereo not shown) [Example 165, [2-(2,6-dioxopiperidin-3-yl)-4-(2-hydroxy-2-methylpropoxy)-3-oxo-2,3-dihydro-1H-isoindol-5-yl]methyl N-[2-fluoro-4-(3,4,5-trifluorophenoxy)phenyl]carbamate]",DC50,Cyclin E1,42 nM
same,Dmax,Cyclin E1,107%
same,Ratio of GSPT1 DC50/Cyclin E1 DC50,Cyclin E1,>332
same,DC50,GSPT1,> 14000 nM
same,Dmax,GSPT1,10%
same,IC50,Phospho-Rb (Ser807/811),28 nM
same,Emax,Phospho-Rb (Ser807/811),133%
"O=C1CCC(N2Cc3ccc(COC(=O)Nc4ccc(Oc5ccc(F)c(F)c5)cc4F)c(Oc4ccccc4)c3C2=O)C(=O)N1 (stereo not shown) [Example 69, [2-(2,6-dioxopiperidin-3-yl)-3-oxo-4-phenoxy-2,3-dihydro-1H-isoindol-5-yl]methyl N-[4-(3,4-difluorophenoxy)-2-fluorophenyl]carbamate]",DC50,Cyclin E1,263 nM
same,Dmax,Cyclin E1,105%
same,Ratio of GSPT1 DC50/Cyclin E1 DC50,Cyclin E1,>53
same,DC50,GSPT1,> 14000 nM
same,Dmax,GSPT1,11%
same,IC50,Phospho-Rb (Ser807/811),94 nM
same,Emax,Phospho-Rb (Ser807/811),125%
